We go through 47 compounds from patent US20160002217A1, “FUNGICIDAL 3--OXADIAZOLONE DERIVATIVES” (BAYER CROPSCIENCE AG, priority 2013, published 2016).

Read-outs that look alike come from different tables or passages of the source. Marks after values point to notes of the source that are not given here.

The nature of data set [1]: Measurement of log P values by HPLC on reversed phase columns (EEC directive 79/831 Annex V.A8). The conditions noted are these: for LogP: Table 1, compounds of formula (I), method [a]: LC-MS at pH 2.7, 0.1% formic acid in water / acetonitrile gradient; for chromatographic logP: pH 2.7.
Data set [2] relates to Phytophthora infestans. Type of data set: in vivo. The conditions noted are these: tomato plants, preventive spray, 500 ppm of active ingredient, evaluated 5 days after inoculation.
The conditions of data set [3]: pH 2.7.

In the case of `Cn1c(C(=NOCc2csc(N)n2)c2ccsc2)noc1=O` [Example 23], the LogP in data set [1] is 1.35^[a]. For the same compound, the “% efficacy” value in data set [2] came to 98%.
On to `CN(O)C(=N)/C(=N\OCc1cccc(NC(=O)OC(C)(C)C)n1)c1ccccn1` [Example VI-01, tert-butyl (6-{[({(1Z)-2-[hydroxy(methyl)amino]-2-imino-1-(pyridin-2-yl)ethylidene}amino)oxy]methyl}pyridin-2-yl)carbamate], for which the chromatographic logP (commonly lipophilicity estimated from chromatographic retention) in data set [1] came out at 1.54.
As to `CCCCCC(=O)Nc1cccc(CON=C(c2ncccn2)c2noc(=O)n2C)n1` [Example 60], the LogP in data set [3] was 2.61^[a]. In addition, the “% efficacy” value in data set [2] turned out to be 90%.
Turning to `CC(C)(C)OC(=O)Nc1cccc(CON=C(C#N)c2cccnc2)n1` [Example IV-07, tert-butyl {6-[({[cyano(pyridin-3-yl)methylene]amino}oxy)methyl]pyridin-2-yl}carbamate], in data set [1], the chromatographic logP was found to be 3.19.
Regarding `CCCCOC(=O)Nc1cccc(CON=C(c2ccncc2)c2noc(=O)n2C)n1` [Example 82], the LogP in data set [3] is 2.80^[a]. The “% efficacy” value in data set [2] is recorded as 100%.
As to `Cn1oc(=O)nc1/C(=N\OCc1cccc(N)n1)c1ccccn1` [Example 9, 3-[(Z)-{[(6-aminopyridin-2-yl)methoxy]imino}(pyridine-2-yl)methyl]-2-methyl-1,2,4-oxadiazol-5(2H)-one], in data set [1], the chromatographic logP amounted to 0.41.
As to `CCCCCC(=O)Nc1cccc(CON=C(c2cccnc2)c2nc(=O)on2C)n1` [Example 63], in data set [3], the LogP is 2.39^[a]. Further, in data set [2], the “% efficacy” value came out at 75%.
The corresponding values for `CCCCOC(=O)Nc1cccc(CON=C(c2cccnc2)c2nc(=O)on2C)n1` [Example 57] are 2.47^[a] and 95%.
The corresponding values for `C#CCCOC(=O)Nc1cccc(CON=C(c2cccnc2)c2noc(=O)n2C)n1` [Example 51] are 2.32^[a] and 90%.
The corresponding values for `CCCCCC(=O)Nc1nc(CON=C(c2ccsc2)c2noc(=O)n2C)cs1` [Example 73] are 3.43^[a] and 100%.
`CCCCOC(=O)Nc1cccc(CON=C(c2ccccn2)c2noc(=O)n2C)n1` [Example 3]: the LogP in data set [3] was 3.25^[a]. In addition, the “% efficacy” value in data set [2] is reported as 100%.
In turn, `CC(C)(C)OC(=O)Nc1cccc(CON=C(C(N)=NO)c2cccnc2)n1` [Example V-03, tert-butyl {6-[({[2-amino-2-(hydroxyimino)-1-(pyridin-3-yl)ethylidene]amino}oxy)methyl]pyridin-2-yl}carbamate] displayed a chromatographic logP in data set [1] of 1.81.
With `CCCCC(=O)Nc1cccc(CON=C(c2ccncc2)c2noc(=O)n2C)n1` [Example 83], in data set [3], the LogP is 2.34^[a]. For the same compound, the “% efficacy” value in data set [2] was 100%.
The corresponding values for `Cn1c(C(=NOCc2cccc(NC(=O)OC(C)(C)C)n2)c2ccncc2)noc1=O` [Example 38] are 2.75^[a] and 100%.
As for `CC(C)(C)OC(=O)Nc1cccc(CO/N=C(\C#N)c2ccccn2)n1` [Example IV-02, tert-butyl {6-[({[(Z)-cyano(pyridin-2-yl)methylene]amino}oxy)methyl]pyridin-2-yl}carbamate], the chromatographic logP in data set [1] is 3.5.
As to `CCCCCC(=O)Nc1cccc(CON=C(c2ccncc2)c2noc(=O)n2C)n1` [Example 84], the LogP in data set [3] was 2.71^[a]. Also, the “% efficacy” value in data set [2] is recorded as 100%.
The corresponding values for `C#CCCOC(=O)Nc1cccc(CON=C(c2cccnc2)c2nc(=O)on2C)n1` [Example 56] are 1.88^[a] and 89%.
The corresponding values for `CCCCCOC(=O)Nc1cccc(CON=C(c2cccnc2)c2nc(=O)on2C)n1` [Example 55] are 2.84^[a] and 92%.
For the compound `Cn1c(C(=NOCc2csc(NC(=O)OC(C)(C)C)n2)c2cccs2)noc1=O` [Example 42], the LogP in data set [3] is 3.35^[a]. In addition, the “% efficacy” value in data set [2] was 93%.
`Cn1c(C(=NOCc2cccc(NC(=O)OC(C)(C)C)n2)c2cccnc2)noc1=O` [Example 33, tert-butyl {6-[({[(4-methyl-5-oxo-4,5-dihydro-1,2,4-oxadiazol-3-yl)(pyridin-3-yl)methylene]amino}oxy)methyl]pyridin-2-yl}carbamate] gave a chromatographic logP in data set [1] of 2.75. Besides, in data set [2], the “% efficacy” value is recorded as 78%.
Consider `C#CCCOC(=O)Nc1cccc(CON=C(c2ccccn2)c2nc(=O)on2CC)n1` [Example 19], for which the LogP in data set [1] is 2.35^[a].
As to `CCCCOC(=O)Nc1cccc(CON=C(c2ncccn2)c2noc(=O)n2C)n1` [Example 53], the LogP in data set [3] was 2.68^[a]. For the same compound, the “% efficacy” value in data set [2] was 85%.
The compound `C#CCCOC(=O)Nc1cccc(CO/N=C(/c2ccccn2)c2nc(=O)on2C)n1` [Example 17, But-3-yn-1-yl {6-[({[(Z)-(2-methyl-5-oxo-2,5-dihydro-1,2,4-oxadiazol-3-yl)(pyridine-2-yl)methylene]amino}oxy)methyl]pyridin-2-yl}carbamate] came in with a chromatographic logP in data set [1] of 2.1.
With `CCCCCC(=O)Nc1cccc(CON=C(c2ccccn2)c2noc(=O)n2C)n1` [Example 4], the LogP in data set [3] is 3.13^[a]. Also, in data set [2], the “% efficacy” value is 88%.
The corresponding values for `CC(Oc1ccccc1)C(=O)Nc1nc(CON=C(c2ccsc2)c2noc(=O)n2C)cs1` (racemic) [Example 43] are 3.37^[a] and 98%.
The corresponding values for `CCCCCOC(=O)Nc1cccc(CON=C(c2ncccn2)c2noc(=O)n2C)n1` [Example 52] are 3.06^[a] and 88%.
On to `CCCCC(=O)Nc1cccc(CON=C(c2cccnc2)c2noc(=O)n2C)n1` [Example 59], for which the LogP in data set [3] is 2.51^[a]. Also, the “% efficacy” value in data set [2] is reported as 78%.
Turning to `CCCCCOC(=O)Nc1cccc(CON=C(c2cccnc2)c2noc(=O)n2C)n1` [Example 49], the LogP in data set [3] was 3.37^[a]. Further, in data set [2], the “% efficacy” value is given as 99%.
For `Cn1c(C(=NOCc2csc(NC(=O)COc3ccccc3)n2)c2ccsc2)noc1=O` [Example 67], the LogP in data set [3] was 3.22^[a]. Further, the “% efficacy” value in data set [2] turned out to be 98%.
The corresponding values for `CCCC(C)C(=O)Nc1nc(CON=C(c2ccsc2)c2noc(=O)n2C)cs1` (centres unmarked) [Example 71] are 3.39^[a] and 100%.
For `CCCCCOC(=O)Nc1cccc(CON=C(c2ccncc2)c2noc(=O)n2C)n1` [Example 44], the LogP in data set [1] was 3.29^[a]. Moreover, in data set [2], the “% efficacy” value amounted to 98%.
In the case of `C#CCCOC(=O)Nc1cccc(CON=C(c2ccccn2)c2noc(=O)n2C)n1` [Example 7], the LogP in data set [3] was 2.56^[a]. The “% efficacy” value in data set [2] was 85%.
`CC(C)(C)OC(=O)Nc1cccc(CON=C(c2cccnc2)c2noc(=O)[nH]2)n1` [Example 32, tert-butyl {6-[({[(5-oxo-4,5-dihydro-1,2,4-oxadiazol-3-yl)(pyridin-3-yl)methylene]amino}oxy)methyl]pyridin-2-yl}carbamate]: in data set [1], the chromatographic logP is 2.59.
For the compound `CCCCCOC(=O)Nc1cccc(CON=C(c2ccccn2)c2nc(=O)on2C)n1` [Example 15], in data set [3], the LogP was 3.09^[a]. Further, the “% efficacy” value in data set [2] was found to be 88%.
The corresponding values for `CCCCOC(=O)Nc1cccc(CON=C(c2cccnc2)c2noc(=O)n2C)n1` [Example 50] are 2.98^[a] and 100%.
Consider `CCCCCOC(=O)Nc1cccc(CON=C(c2ccccn2)c2noc(=O)n2C)n1` [Example 12], for which, in data set [3], the LogP is 3.67^[a]. Besides, the “% efficacy” value in data set [2] is reported as 85%.
As to `CCCCCOC(=O)Nc1nc(CON=C(c2cccs2)c2noc(=O)n2C)cs1` [Example 74], the LogP in data set [3] is 3.79^[a]. Moreover, the “% efficacy” value in data set [2] is 85%.
Consider `CC(C)(C)OC(=O)Nc1cccc(CON=C(C#N)c2ccncc2)n1` [Example IV-04], for which, in data set [3], the LogP is 3.05^[a].
On the same count and under the same terms, under `CCn1oc(=O)nc1C(=NOCc1cccc(NC(=O)OC(C)(C)C)n1)c1ccccn1` [Example 8] stands 2.84^[a].
As to `Cn1oc(=O)nc1C(=NOCc1cccc(NC(=O)OC(C)(C)C)n1)c1ccncc1` [Example 37], the LogP in data set [3] is 2.21^[a]. Besides, the “% efficacy” value in data set [2] is given as 80%.
As for `CC(C)(C)OC(=O)N(C(=O)OC(C)(C)C)c1nc(CON=C(C#N)c2ccsc2)cs1` [Example IV-11], the LogP in data set [3] is 4.90^[a].
In the case of `CCOC(=O)c1nc(CON=C(C(N)=NO)c2ccsc2)cs1` [Example V-05], the LogP in data set [3] was 1.70^[a].
On the same count and under the same terms, then `CCCCC(=O)Nc1cccc(CON=C(c2ccncc2)c2nc(=O)on2C)n1` [Example 75], with 1.88^[a]; and `CCCCCC(=O)Nc1cccc(CON=C(c2ccccn2)c2nc(=O)on2CC)n1` [Example 11], with 2.84^[a].
Still for that read-out and setting: under `N#CC(=NOCc1csc(NC(=O)c2ccc(F)cc2)n1)c1ccsc1` [Example IV-10] stands 3.51^[a]; under `Cn1oc(=O)nc1C(=NOCc1cccc(N)n1)c1ccncc1` [Example 39], 1.20^[c].
For `CCCCOC(=O)Nc1cccc(CON=C(c2ccccn2)c2nc(=O)on2C)n1` [Example 21], in data set [3], the LogP is 2.70^[a].
